Data taken from patent US20070078085A1, “Methods and compositions for the utilization and targeting of osteomimicry” (priority 2004, published 2007).
d = 2'-deoxy (DNA)

Assays:
[1] = tested on: hOC promoter; assay: hOC promoter-luciferase reporter activity in transfected cells; format: cell-based, human; conditions: C4-2B cells, 16 h
Description: Plasmid Construction. Genomic DNA was used in the PCR of the 0.8-kb hOC promoter inserting KpnI and XhoI sites, subsequently cloned into pGL3-Basic-luciferase reporter vector (Promega, Madison, Wis.) as described before (9). The deletion constructs, ΔA [374 bp upstream of AP1/VDRE (AV) element], ΔTst-1 (POU-factor Tst-1/Oct-6 binding site), ΔCRE (cAMP-responsive element) and ΔIRF-1 (interferon regulatory factor-i binding site) in hOC promoter/pGL3 were generated by recombinant PCR technique. The point mutation plasmids in CRE (from -643 to -636 in hOC promoter, 5′-[…]-3′) were constructed with a QuikChange Site-Directed Mutagenesis Kit (Stratagene). The mutation constructs (see below) are one-point substitution mutants, Mut1 (-642 G→T), Mut2 (-641 A→C), Mut3 (-640 C→A), Mut4 (-639 C→A) and Mut5 (-638 T→G), a two-point substitution mutant, Mut6 (-640 and -639 CC→AA), and a two-point deletion construct, Mut7 (-640 and -639 CC→XX). The 1.5-kb hBSP promoter construct prepared in the pGL3-luciferase reporter vector has been described previously (36). The single deletion constructs ΔCRE1 (-79 to -72) and ΔCRE2 (-674 to -667), and a double deletion construct ΔCRE2/CRE1 in the hBSP promoter/pGL3-luciferase plasmid were generated by recombinant PCR technique. All plasmid constructs were confirmed by DNA sequencing.
Transfection and Luciferase Activity Assay. Cells were trypsinized and seeded at a density of 1.5×10^5 cells/well (LNCaP, C4-2B, DU145 and ARCaP) and 1.0×10^5 cells/well (PC3 and MG63) in 12-well plates 24 h before transfection. Plasmid DNAs were introduced into cells by complexing with a commercial reagent DOTAP (Roche Molecular Biochemicals) according to the manufacturer's protocol. Each transfection reaction contained 1.25 μg of tested DNA constructs and 0.25 μg of the transfection efficiency control CMV promoter-driven β-galactosidase plasmid DNA. After 6 h transfection, DNA-liposome mixtures were replaced by fresh T-medium or CM. Tansfected cells were harvested and lysed in 1× Reporter Lysis buffer (Promega) after 36 h additional incubation. Cell lysates were vortexed for 15 s and spun for 10 min. For luciferase activity assay, 20 μl of the lysate supernatant was mixed with 100 μl of the luciferase substrate (Promega) and detected by a luminometer (Monolight 3010, luminometer PharMingen, San Diego, Calif.). For β-galactosidase activity assay, 100 μl of the supernatant was mixed with 100 μl of 2×β-galactosidase substrate [200 mM sodium phosphate buffer, pH 7.3, 2 mM MgCl2, 100 mM β-mercaptoethanol and 1.33 mg/ml o-nitrophenyl-β-D-galactopyranoside (ONPG)], and incubated at 37° C. for 30 min. β-galactosidase activity was detected by Microplate spectrophotometer (Molecular Devices Corp., Sunnyvale, Calif.) at 405 nm wavelength. Data were presented as normalized luciferase activity (means±standard deviations), defined as luciferase activity normalized to internal control β-galactosidase activity for transfection efficiency. All studies were performed in three independent experiments with duplicate assays.

[2] = tested on: hBSP promoter; assay: hBSP promoter-luciferase reporter activity in transfected cells; format: cell-based, human; conditions: C4-2B cells; db cAMP 10^−6 to 10^−3 M, FSK 10^−8 to 10^−5 M; 16 h; concentration-dependent
Description: Plasmid Construction. Genomic DNA was used in the PCR of the 0.8-kb hOC promoter inserting KpnI and XhoI sites, subsequently cloned into pGL3-Basic-luciferase reporter vector (Promega, Madison, Wis.) as described before (9). The deletion constructs, ΔA [374 bp upstream of AP1/VDRE (AV) element], ΔTst-1 (POU-factor Tst-1/Oct-6 binding site), ΔCRE (cAMP-responsive element) and ΔIRF-1 (interferon regulatory factor-i binding site) in hOC promoter/pGL3 were generated by recombinant PCR technique. The point mutation plasmids in CRE (from -643 to -636 in hOC promoter, 5′-[…]-3′) were constructed with a QuikChange Site-Directed Mutagenesis Kit (Stratagene). […]
Transfection and Luciferase Activity Assay. […] For luciferase activity assay, 20 μl of the lysate supernatant was mixed with 100 μl of the luciferase substrate (Promega) and detected by a luminometer (Monolight 3010, luminometer PharMingen, San Diego, Calif.). For β-galactosidase activity assay, 100 μl of the supernatant was mixed with 100 μl of 2×β-galactosidase substrate [200 mM sodium phosphate buffer, pH 7.3, 2 mM MgCl2, 100 mM β-mercaptoethanol and 1.33 mg/ml o-nitrophenyl-β-D-galactopyranoside (ONPG)], and incubated at 37° C. for 30 min. β-galactosidase activity was detected by Microplate spectrophotometer (Molecular Devices Corp., Sunnyvale, Calif.) at 405 nm wavelength. […]

[3] = tested on: PC3-Luc tumor; assay: Subcutaneous bone powder PC3-Luc tumors, intratumoral siRNA-liposome, bioluminescence imaging; format: in vivo, athymic nu/nu mice; conditions: intratumoral 0.8 μg siRNA three-time per week, four weeks, 28 days
Description: (§1) The β2M- and control scramble-siRNA sequences were 5′-[…](dT)(dT)-3′ and 5′-[…](dT)(dT)-3′, respectively. For RNA delivery system, we used cationic liposome formulation, termed SN {Zou, 2002#68} to deliver β2M- and scramble-siRNA into cell lines or mice. The ratio of siRNA (μg) to SN (μl) was 1:24. To test prostate tumor growth inhibition by β2M-siRNA, four weeks old male athymic nu/nu mice were inoculated into the subcutaneous space of the chest regions with 2×10^6 cells of PC3-Luc or C4-2 mixed with 20 mg of bone powder (kindly provided by Dr. A. H. Reddi, University of California, Davis, Sacramento, Calif.) and 35 μl of Matrigel matrix (BD Bioscience, Bedford Mass.), respectively. Three (PC3-Luc) or four (C4-2) weeks later, the tumor-bearing mice were randomly divided into two groups. The mice in the treatment group received intratumoral injection of SN-β2M-siRNA for three-time per week continuously four weeks, at a dose of 0.8 μg of siRNA mixed with 19.2 μl of SN for each mouse. The control group injected with the same dose of SN-scramble-siRNA. To assay of anti-tumor activity of β2M-siRNA therapeutic efficacy, the real-time bioluminescence image by the CCD camera cryogenically cooled IVIS system with analysis software (Xenogen Corp., Alameda Calif.) (Ref) and serum PSA levels were used to monitored PC3-Luc and C4-2 tumor burden in nude mice.

[4] = tested on: AR; assay: Western blot of AR in siRNA-infected C4-2B cells; format: cell-based, human; conditions: retrovirally infected C4-2B cells
Description: (§2) FIG. 14. Western blot analysis of parental C4-2B (P), b2M-siRNA (siRNA) and scramble-siRNA (Scramble) retrovirally infected cells. Note AR and PSA expression were abolished by b2M-siRNA in C4-2B cells. EFIa was used as loading control.
(§3) Western blotting was performed using the NOVEX system (Invitrogen). […] Detection of protein bands was performed with ECL Western Boltting Detection Reagents (Amersham Biosciences Corp.).

[5] = tested on: C4-2-Luc tumor; assay: Subcutaneous bone powder C4-2-Luc tumors, intratumoral siRNA-liposome, serum PSA; format: in vivo, athymic nu/nu mice; conditions: intratumoral 0.8 μg siRNA three-time per week, four weeks, 28 days
Description: as §1

[6] = tested on: b2M; assay: b2M expression in C4-2B clones after siRNA; format: cell-based, human; conditions: Neo and b2M-overexpressed C4-2B clones
Description: Total RNA was isolated from the confluent monolayer of cells using RNAZol B (Teltest Inc., Friendswood, Tex.). The total RNA was used as template for RT according to the manufacturer's instruction (Invitrogen). […] RT-PCR products were analyzed by 1.2% agarose gel electrophoresis.
as §3
The β2M- and control scramble-siRNA sequences were 5′-[…](dT)(dT)-3′ and 5′-[…](dT)(dT)-3′, respectively. For RNA delivery system, we used cationic liposome formulation, termed SN {Zou, 2002#68} to deliver β2M- and scramble-siRNA into cell lines or mice. The ratio of siRNA (μg) to SN (μl) was 1:24. […] To assay of anti-tumor activity of β2M-siRNA therapeutic efficacy, the real-time bioluminescence image by the CCD camera cryogenically cooled IVIS system with analysis software (Xenogen Corp., Alameda Calif.) (Ref) and serum PSA levels were used to monitored PC3-Luc and C4-2 tumor burden in nude mice.

[7] = tested on: human prostate cancer cell lines; assay: In vitro cell proliferation assay, prostate cancer cells; format: cell-based; conditions: for cell proliferation: Neo and b2M-overexpressed C4-2B clones, siRNA
Description: LNCaP, C4-2B, DU145, PC3, MG63 and ARCaP cell lines were seeded in 96-well plates in T-medium containing 5% FBS, respectively. After 24 h incubation, media were replaced by fresh, serum-free T-medium and incubated for an additional 24 h. […] Cell numbers were measured every 24 h using CellTiter 96® AQueous One Solution Cell Proliferation Assay (Promega, Madison, Wis.).

[8] = tested on: PSA; assay: Western blot of PSA in siRNA-infected C4-2B cells; format: cell-based, human; conditions: retrovirally infected C4-2B cells
Description: as §2, §3

[9] = tested on: OC mRNA; assay: Semi-quantitative RT-PCR of endogenous OC mRNA; format: cell-based, human; conditions: FSK 10^−6 M, 12 h
Description: (§4) Reverse Transcription-Polymerase Chain Reaction (RT-PCR) Analysis. Total RNA was isolated from confluent monolayers of cells using RNAZol B (Teltest Inc., Friendswood, Tex.). Five μg of total RNA was used as template and 0.15 μg of random hexanucleotide primers were added for reverse transcription and amplification in a reaction volume of 20 μl, according to the manufacturer's instruction (Invitrogen, Carlsbad, Calif.). After RT reaction, 3-5 μl of the 1st-strand cDNA was used for PCR with a PTC-100 programmable Thermal Controller (MJ Research Inc.). The oligonucleotide primer sets used for PCR analysis of cDNA are: hOC, 5′-[…]-3′ (forward) and 5′-[…]-3′ (reverse); hBSP, 5′-[…]-3′ (forward) and 5′-[…]-3′ (reverse); and glyceraldehyde phosphate dehydrogenase (GAPDH), 5′-[…]-3′ (forward) and 5′-[…]-3′ (reverse), respectively. The thermal profile for hOC amplification is 30 cycles starting with denaturation 1 min at 94° C., followed by 1 min of annealing at 55° C. and 1 min of extension at 72° C. For hBSP amplification the thermal profile is 35 cycles starting with denaturation 1 min at 94° C., followed by 30 s of annealing at 48° C. and 40 s of extension at 72° C. The program for GAPDH amplification is 25 cycles starting with denaturation 30 s at 94° C., followed by 30 s of annealing at 60° C. and 1 min of extension at 72° C. The RT-PCR products were analyzed by 1.2% agarose gel electrophoresis. Quantity one-4.1.1 Gel Doc gel documentation software (Bio-Rad) or NIH image were used for quantification of hOC and hBSP mRNA expression normalized by GAPDH mRNA expression.

[10] = tested on: BSP mRNA; assay: Semi-quantitative RT-PCR of endogenous BSP mRNA; format: cell-based, human; conditions: FSK 10^−6 M, 12 h
Description: as §4

[11] = tested on: C4-2B cells; assay: Adhesion assay on ECM-coated 96-well plates; format: cell-based, human; conditions: β2M siRNA vs scramble siRNA
Description: FIG. 13. Adhesion assay of b2M-siRNA and scramble-siRNA infected C4-2B cells using 96-well plate pre-coated with Col I, LM, FN and Col IV. BSA was used as control (Con). *, p<0.05, **, p<0.005.
Cell attachment to BSA coated wells served as an internal control (Con).

CCCC(=O)Nc1ncnc2c1ncn2[C@@H]1O[C@@H]2COP(=O)(O)O[C@H]2[C@H]1OC(=O)CCC [db cAMP, dibutyryl 3′,5′-cyclic AMP]
hOC promoter activity, effect of PKA pathway activators ([1]; db cAMP 10^−6 to 10^−3 M, FSK 10^−8 to 10^−5 M, concentration-dependent): stimulated | hBSP promoter activity, effect of PKA pathway activators [2]: stimulated

5′-UUCAUGUGUCUGUGGUGUU(dT)(dT)-3′ (siRNA; RNA, 3' dTdT, backbone not given here; scramble control, delivered in cationic liposome formulation SN) [scramble-siRNA]
growth of pre-established PC3-Luc tumors, Luc-imaging (BLI) [3]: not | AR protein expression [4]: not | growth of pre-established C4-2-Luc tumors, serum PSA [5]: not | b2M expression [6]: did not affect | cell proliferation [7]: did not affect | PSA protein expression [8]: not

C=C[C@@]1(C)CC(=O)[C@]2(O)[C@@]3(C)[C@@H](O)CCC(C)(C)[C@@H]3[C@H](O)[C@H](OC(C)=O)[C@@]2(C)O1 [FSK, forskolin]
steady-state level of OC mRNA, fold elevation ([9]; C4-2B cells): 7.8 fold | steady-state level of OC mRNA, fold elevation ([9]; LNCaP cells): 5.2 fold | level of BSP mRNA, fold increase ([10]; C4-2B cells): 5.4 fold | level of BSP mRNA, fold increase ([10]; LNCaP cells): 3.2 fold

5′-UUGCUAUGUGUCUGGGUUU(dT)(dT)-3′ (siRNA; RNA, 3' dTdT, backbone not given here; delivered in cationic liposome formulation SN) [b2M-siRNA]
AR protein expression [4]: abolished | cell attachment to collagen I (Col I) [11]: no significant difference | cell attachment to collagen IV (Col IV) [11]: decreased attachment | cell attachment to fibronectin (FN) [11]: no significant difference | cell attachment to laminin (LM) [11]: no significant difference | b2M expression [6]: inhibited | cell proliferation [7]: inhibited | growth of prostate cancer cells in vitro and tumor growth in bone on blocking β2M signaling ([7]; preliminary investigations): greatly attenuated | PSA protein expression [8]: abolished

CCCCCCCCCCCCCC(=O)O[C@@H]1[C@@H](C)[C@@]2(O)[C@@H](C=C(CO)C[C@]3(O)C(=O)C(C)=C[C@@H]23)[C@@H]2C(C)(C)[C@]12OC(C)=O [PMA, phorbol 12-myristate 13-acetate]
hOC promoter activity, induction by PKC pathway activator ([1]; PMA 10^−6 M): induced hOC promoter activity to a lesser extent
